Results on 27 compounds are retold here after ChEMBL document CHEMBL5244269, “Improving metabolic stability and removing aldehyde oxidase liability in a 5-azaquinazoline series of IRAK4 inhibitors” (Bioorg Med Chem, 2020).

Each structure is given as a SMILES string. Where only a bound is given, the exact number is not on record here.

Broadly, the IC50 is the concentration that inhibits the measured activity by half. For orientation: logD means the decadic logarithm of the distribution of all forms, ionised or not, between an organic phase and buffer at a given pH. Higher therefore signals higher lipophilicity. One may read the Papp A→B as how fast a substance crosses the layer from the apical side. In general, efflux ratio refers to a quotient of directional permeabilities that is used to spot active efflux.

For data set [1], the target named is T1, Interleukin-1 receptor-associated kinase 4 (Homo sapiens, UniProt Q9NWZ3).
T1 sequence (Q9NWZ3 whole entry): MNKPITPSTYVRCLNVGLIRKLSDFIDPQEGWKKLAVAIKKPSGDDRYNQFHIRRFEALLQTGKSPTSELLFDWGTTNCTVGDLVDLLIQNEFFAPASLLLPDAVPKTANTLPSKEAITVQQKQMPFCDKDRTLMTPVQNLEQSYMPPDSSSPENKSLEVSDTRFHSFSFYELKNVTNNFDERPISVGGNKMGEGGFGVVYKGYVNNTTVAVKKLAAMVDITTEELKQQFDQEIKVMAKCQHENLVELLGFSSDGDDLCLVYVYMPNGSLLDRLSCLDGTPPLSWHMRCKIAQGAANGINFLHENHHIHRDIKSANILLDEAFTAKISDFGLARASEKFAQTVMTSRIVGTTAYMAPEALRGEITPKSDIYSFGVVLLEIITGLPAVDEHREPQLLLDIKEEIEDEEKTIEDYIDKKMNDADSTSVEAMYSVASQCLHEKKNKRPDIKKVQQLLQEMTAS
As to the kind of experiment: Inhibition of IRAK4 (unknown origin) phosphorylation by cell based assay.

A short description of data set [2]: Metabolic stability in human liver microsomes assessed as intrinsic clearance. The class given is ADME, Microsome. The conditions noted are these: read-out: CLH. Background: Microsomes from liver hold many membrane-bound enzymes, among them those of drug oxidation.
The nature of data set [3]: Lipophilicity, LogD at pH 7.4 of the compound by shake flask method. Format: physicochemical. The conditions noted are these: buffer.
Data set [4] in a line: Metabolic stability in human hepatocytes assessed as intrinsic clearance measured per 10^6 cells. Format: ADME, cell-based, Hepatocyte. Conditions: read-out: CLH.
Data set [5] concerns the target T1, Interleukin-1 receptor-associated kinase 4. As to the kind of experiment: Inhibition of IRAK4 (unknown origin) in presence of ATP by enzymatic assay.
The nature of data set [6]: Metabolic stability in human cytosol assessed as intrinsic clearance. The class given is ADME, subcellular.
Data set [7] is described as follows: Apparent permeability across apical to basolateral side in human Caco-2 cells measured for 360 mins by liquid scintillation counting based analysis. The class given is ADME, cell-based.
A short description of data set [8]: Efflux ratio of apparent permeability basolateral to apical side over apical to basolateral side in human Caco-2 cells measured for 360 mins by liquid scintillation counting based analysis. The class given is ADME, cell-based.

With `Cc1nc2c(OC3(C)CC3)nc(Nc3cnn(C4CC5(C4)CN(C)C5)c3)nc2cc1F`, the 50% inhibitory concentration (IC50) came out at 200 nM in data set [1] and 3 nM in data set [5]. Besides, the microsomal CLint in data set [2] was less than 3 µL/min/mg. In data set [3], this compound yielded a logD of 2.2. Besides, in data set [4], the hepatocyte CLint came to 4 µL/min/1e6 cells.
Take `Cn1cc(Nc2nc(N[C@@H]3CCOC3)c3nc(CC#N)ccc3n2)cn1`: the results for the IC50 in data set [1] and in data set [5] were 3500 nM and 211 nM, respectively. In addition, the log distribution coefficient (logD) in data set [3] amounted to 1.5.
As for `CN1CCC(n2cc(Nc3nc(OC4(C)CC4)c4nc(-c5ccn(C)n5)ccc4n3)cn2)CC1`, the IC50 in data set [1] was 21000 nM; in data set [5], 490 nM. The microsomal CLint in data set [2] was 18 µL/min/mg. The compound also showed a logD in data set [3] of 2.1.
As for `CC(=O)N1CCC(n2cc(Nc3nc(OC4CCOCC4)c4nc(CC#N)ccc4n3)cn2)CC1`, the 50% inhibitory concentration (IC50) stood at 2000 nM in data set [1] and 32 nM in data set [5]. Moreover, the microsomal CLint in data set [2] amounted to 5 µL/min/mg. Besides, the logD in data set [3] is 1.2.
Taken in the same sequence, the figures for `N#CCc1ccc2nc(Nc3cnn(C4CCOCC4)c3)nc(NC3CCOCC3)c2n1` were 570 nM, 15 nM, 110 µL/min/mg and 1.9.
For the compound `Cc1ncc(-c2ccc3nc(Nc4cnn(C5CCN(C)CC5)c4)nc(OC4(C)CC4)c3n2)cn1`, the IC50 was determined as 140 nM in data set [1] and 1.8 nM in data set [5]. Further, the microsomal CLint in data set [2] was 52 µL/min/mg; in data set [6], 69 µL/min/mg. In data set [3], this compound showed a logD of 2.2. In data set [4], the hepatocyte CLint stood at 170 µL/min/1e6 cells.
For the compound `Cc1ncc(-c2ccc3nc(Nc4cnn(C5CCN(C)CC5)c4)nc(OC4(C)CC4)c3n2)c(C)n1`, the 50% inhibitory concentration (IC50) in data set [1] came to 260 nM; in data set [5] it was 7 nM. The values for the microsomal CLint in data set [2] and in data set [6] were 23 µL/min/mg and 2.2 µL/min/mg, respectively. The compound also had a logD in data set [3] of 2.1. Also, the hepatocyte CLint in data set [4] is 3.4 µL/min/1e6 cells.
For `CC(=O)N1CCC(n2cc(Nc3nc(NC4CCOCC4)c4nc(CC#N)ccc4n3)cn2)CC1`, the results for the IC50 in data set [1] and in data set [5] were 670 nM and 12 nM, respectively. Further, the microsomal CLint in data set [2] is 26 µL/min/mg. In data set [3], this compound yielded a logD of 1.4. Also, the Papp A→B at 6 h in data set [7] stood at 4.1 ×10⁻⁶ cm/s. Besides, the efflux ratio at 6 h in data set [8] is 86.
On to `CN1CCC(n2cc(Nc3nc(OC4(C)CC4)c4nc(-c5cccnc5)ccc4n3)cn2)CC1`, for which the IC50 came out at 120 nM in data set [1] and 1 nM in data set [5]. In addition, the microsomal CLint in data set [2] came out at 130 µL/min/mg. The compound further displayed a logD in data set [3] of 2.6.
On to `CN1CCC(n2cc(Nc3nc(OC4(C)CC4)c4nc(-c5cn(C)nn5)ccc4n3)cn2)CC1`, for which the IC50 in data set [1] came out at 510 nM; in data set [5], 19 nM. The microsomal CLint in data set [2] turned out to be 13 µL/min/mg. In data set [3], this compound registered a logD of 1.8. The hepatocyte CLint in data set [4] is less than 1 µL/min/1e6 cells.
With `Cc1ncc(-c2nc3c(OC4(C)CC4)nc(Nc4cnn([C@@H]5C[C@H]6C[C@@H]5CN6C)c4)nc3cc2F)cn1`, the concentration for half-maximal inhibition (IC50) in data set [1] was determined as 1100 nM; in data set [5], 32 nM. In addition, the microsomal CLint in data set [2] amounted to 14 µL/min/mg. Besides, the logD in data set [3] is 1.5.
For `Cn1cc(Nc2nc(NC3(C)CC3)c3nc(CC#N)ccc3n2)cn1`, the IC50 was 110 nM in data set [1] and 2 nM in data set [5]. Besides, in data set [3], the logD was found to be 2.7. For the same compound, the hepatocyte CLint in data set [4] was 71 µL/min/1e6 cells.
Take `CN1CCC(n2cc(Nc3nc(OC4(C)CC4)c4nc(-c5cncnc5)c(F)cc4n3)cn2)CC1`: the IC50 in data set [1] is 29 nM; in data set [5], 1 nM. Moreover, the microsomal CLint amounted to 88 µL/min/mg in data set [2] and 20 µL/min/mg in data set [6]. Also, the hepatocyte CLint in data set [4] turned out to be 14 µL/min/1e6 cells.
Consider `Cc1ncc(-c2nc3c(NC4(C)CC4)nc(Nc4cnn(C5CC6(C5)CN(C)C6)c4)nc3cc2F)cn1`, for which the IC50 turned out to be 54 nM in data set [1] and 0.6 nM in data set [5]. The microsomal CLint in data set [2] worked out at 11 µL/min/mg. Also, the logD in data set [3] worked out at 2.1. Besides, the hepatocyte CLint in data set [4] is less than 1 µL/min/1e6 cells.
With `Cn1cc(Nc2nc(NC3CC3)c3nc(CC#N)ccc3n2)cn1`, the IC50 in data set [1] came to 490 nM; in data set [5] it was 22 nM. Besides, the logD in data set [3] came out at 2.1.
On to `CN1CCC(n2cc(Nc3nc(OC4(C)CC4)c4nc(-c5ccnnc5)ccc4n3)cn2)CC1`, for which the IC50 stood at 130 nM in data set [1] and 1 nM in data set [5]. Besides, the microsomal CLint in data set [2] was found to be 48 µL/min/mg. This compound registered a logD in data set [3] of 1.7. For the same compound, the hepatocyte CLint in data set [4] worked out at 8.4 µL/min/1e6 cells.
As to `Cc1ncncc1-c1ccc2nc(Nc3cnn(C4CCN(C)CC4)c3)nc(OC3(C)CC3)c2n1`, the IC50 turned out to be 170 nM in data set [1] and 5 nM in data set [5]. The microsomal CLint in data set [2] worked out at 44 µL/min/mg; in data set [6] it was 4.8 µL/min/mg. This compound also came in with a logD in data set [3] of 1.9. Also, in data set [4], the hepatocyte CLint is 4.7 µL/min/1e6 cells.
Take `Cc1ncncc1-c1nc2c(OC3(C)CC3)nc(Nc3cnn(C4CCN(C)CC4)c3)nc2cc1F`: the values for the IC50 in data set [1] and in data set [5] were 480 nM and 15 nM, respectively. In addition, the figures for the microsomal CLint in data set [2] and in data set [6] were 53 µL/min/mg and less than 0.5 µL/min/mg, respectively. Further, in data set [3], the logD amounted to 2.2. In addition, the hepatocyte CLint in data set [4] is 5.5 µL/min/1e6 cells.
On to `Cc1ncc(-c2nc3c(OC4(C)CC4)nc(Nc4cnn([C@@H]5C[C@@H]6C[C@H]5CN6C)c4)nc3cc2F)cn1`, for which the IC50 in data set [1] came to 310 nM; in data set [5] it was 4 nM. Further, the microsomal CLint in data set [2] is 15 µL/min/mg. In data set [3], this compound had a logD of 1.7. The hepatocyte CLint in data set [4] is less than 1 µL/min/1e6 cells.
Take `Cn1cc(Nc2nc(NC3COC3)c3nc(CC#N)ccc3n2)cn1`: the half-maximal inhibitory concentration (IC50) was 9400 nM in data set [1] and 447 nM in data set [5]. The compound further had a logD in data set [3] of 1.2.
In the case of `CN1CCC(n2cc(Nc3nc(OC4(C)CC4)c4nc(C5CC5)ccc4n3)cn2)CC1`, the IC50 came out at 38 nM in data set [1] and 2 nM in data set [5]. Further, the microsomal CLint in data set [2] worked out at 37 µL/min/mg. In data set [3], this compound gave a logD of 2.8. The hepatocyte CLint in data set [4] was 4.6 µL/min/1e6 cells.
Taken in the same sequence, the figures for `CN1CC2(CC(n3cc(Nc4nc(OC5(C)CC5)c5nc(C6CC6)c(F)cc5n4)cn3)C2)C1` were 300 nM, 3 nM, less than 3 µL/min/mg, 2.6 and less than 1 µL/min/1e6 cells.
With `Cn1cc(Nc2nc(N[C@H]3CCOC3)c3nc(CC#N)ccc3n2)cn1`, the IC50 stood at 2600 nM in data set [1] and 113 nM in data set [5]. Also, in data set [3], the logD was 1.6.
Taken in the same sequence, the figures for `CC(C)Nc1nc(Nc2cnn(C)c2)nc2ccc(CC#N)nc12` were 570 nM, 51 nM and 2.4.
In the case of `CN1CCC(n2cc(Nc3nc(OC4(C)CC4)c4nc(-c5cn(C)cn5)ccc4n3)cn2)CC1`, the values for the IC50 in data set [1] and in data set [5] were 6800 nM and 730 nM, respectively. For the same compound, the microsomal CLint in data set [2] was 14 µL/min/mg. The logD in data set [3] stood at 1.8.
As for `Cn1cc(Nc2nc(NC3CCOCC3)c3nc(CC#N)ccc3n2)cn1`, the results for the IC50 in data set [1] and in data set [5] were 2100 nM and 139 nM, respectively. Moreover, the logD in data set [3] worked out at 1.7.
Turning to `Cc1ncc(-c2nc3c(OC4(C)CC4)nc(Nc4cnn(C5CC6(C5)CN(C)C6)c4)nc3cc2F)cn1`, the values for the IC50 in data set [1] and in data set [5] were 220 nM and 3 nM, respectively. Besides, the microsomal CLint in data set [2] was less than 3 µL/min/mg. In data set [3], this compound came in with a logD of 1.4. Also, the hepatocyte CLint in data set [4] is less than 1 µL/min/1e6 cells.
